The values that follow come from US10100047B2, “Piperidine derivatives as orexin receptor antagonist” (SHANGHAI HAIYAN PHARMACEUTICAL TECHNOLOGY CO., LTD., priority 2014, dated 2018).

In the first experiment the target is T1, hOX2R (Homo sapiens, UniProt O43614).
T1 construct: expressed in transfected cells
T1 sequence (O43614 1-444): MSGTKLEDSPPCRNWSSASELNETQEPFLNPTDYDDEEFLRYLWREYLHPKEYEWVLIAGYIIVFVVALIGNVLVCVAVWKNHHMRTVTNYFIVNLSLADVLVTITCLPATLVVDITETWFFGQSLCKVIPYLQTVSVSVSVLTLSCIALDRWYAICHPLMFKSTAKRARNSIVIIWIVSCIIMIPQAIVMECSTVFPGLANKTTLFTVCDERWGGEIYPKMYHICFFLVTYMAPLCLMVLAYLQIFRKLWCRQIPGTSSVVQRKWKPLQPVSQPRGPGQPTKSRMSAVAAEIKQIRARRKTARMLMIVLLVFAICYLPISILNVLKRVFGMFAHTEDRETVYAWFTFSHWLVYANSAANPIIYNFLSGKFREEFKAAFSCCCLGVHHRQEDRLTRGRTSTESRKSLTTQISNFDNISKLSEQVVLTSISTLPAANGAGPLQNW
Briefly: In vitro test of OX2R: calcium signal change in cells detected with FLIPR. The class given is cell-based. As to conditions: HEK293-OX2 stable cell strain, Fluo-4 AM calcium signal, Orexin A at EC70; read-out: IC50 detected in FLIPR, hOX2R. As for the experimental part: (§1) The inhibitive effect of a compound on OX1 and OX2 GPCR receptor was evaluated by detecting calcium signal change in cells with FLIPR, and IC50 value of compound was used as an indication.
(§2) Experimental Materials: • Cell line: HEK293-OX1 and OX2 stable cell strain • HEK293-OX1 cell culture media (DMEM, Invitrogen#11960-044, 10% serum Gibco#10099141, L-Glutamine 1×, Gibco#25030, sodium pyruvate 1×, Gibco #11360, Geneticin 300 μg/ml, Gibco #10131). • HEK293-OX2 cell culture media (DMEM, Invitrogen#11960-044, 10% serum Gibco#10099141, L-Glutamine 1×, Gibco#25030, sodium pyruvate 1×, Gibco #11360, Geneticin 300 μg/ml, Gibco #10131, Blasticin 2 μg/ml, Invitrogen # R21001). • Pancreatic enzyme (Invitrogen, #25200-072) • DPBS (Hyclone, #SH30028.01B) • Fluo-4 AM, Invitrogen# F14202 • F-127, Invitrogen # P3000MP • Probenecid, Sigma # P8761 • 384-well cell plate, Greiner #781946 • 384-well compound plate, Greiner #781280 • CO2 incubator, Thermo#371 • Centrifuge, Eppendorf #5810R • Vi-cell cytometry, Beckman Coulter • POD 810 Plate Assembler Automatic microplate pretreatment system • Labcyte FLIPR, Molecular Device.
(§3) a) cell inoculation (HEK293-OX1 and HEK293-OX2 cells) • 1) The medium trypsin, and DPBS were preheated at 37° C. under water bath. Culture medium of cells was sucked and cells were washed with 10 mL DPBS. • 2) The preheated trypsin was added into the culture bottle which was rotated so that trypsin uniformly covered the bottle. It was placed in an incubator (37° C., 5% CO2) to digest for 1-2 minutes; • 3) Each T150 was suspended with 10-15 mL of culture medium, and centrifuged at 800 rpm for 5 minutes. Cells were resuspended with 10 mL medium, and 1 mL of the cell re-suspension was sucked out and counted with Vi-cell cytometry. • 4) The OX1 cells were diluted with culture medium to 5×10^5 cells/mL, and OX2 cells were diluted to 4×10^5 cells/mL. The diluted cells were added into 384 plate (Greiner. 781946) with multichannel pipettes (50 μL/hole, OX1 cells: 25000 cells/hole; and OX2 cells: 20000 cells/hole). The cell plate was placed in an incubator (37° C., 5% CO2) overnight.
(§4) b) loading of the compound: • 1) DMSO was used to dilute the compound into 20 mM by using 3-fold dilution. 8 gradients in duplicate wells were used. Echo liquid handler was used to add the compound into a compound plate. Then 20 μL buffer was added to ensure that the final DMSO concentration was 0.1%.
(§5) c) FLIPR Experiment: • 1) The cell culture medium in 384-well plate was washed away with a vacuum pump. 30 μL fluorescent dye Fluo4AM was added. […] 8 gradients in duplicate wells were used. Then the DMSO plate was prepared and the DMSO concentration was 0.5%. The cell plate, Orexin A plate, and DMSO plate were placed into FLIPR respectively, and the fluorescence values were read. • 3) EC70 value was calculated based on EC50 value of Orexin A. 5×EC70 solution was prepared and added into a 384-well compound plate with multichannel pipettes. The plate was placed on ice for preservation. • 4) In the FLIPR, the compound plate, 5×EC70 plate, cell plate and FLIPR tips were placed respectively. The program was run and the fluorescence values were read.
(§6) d) Data Analysis: Prism5.0 was used to analysis the data, and the IC50 value of the compound was calculated.
Usually IC50 stands for the concentration that inhibits the measured activity by half. Consider `Cc1ccc(-c2ncccn2)c(C(=O)N2C3CC[C@H]2CC[C@@H]3COc2ccncc2)c1` [Example 32], for which the IC50 was found to be 6 nM.
For the compound `Cc1ccc(-n2nccn2)c(C(=O)N2C3CCC(COc4ccc(F)cn4)C2CC3)c1` (single isomer, unassigned) [Example 4], the IC50 is 195 nM.
Turning to `Cc1ccc(-c2ncccn2)c(C(=O)N2C3CCC(COc4ccc(F)cn4)C2CC3)c1` (single isomer, unassigned) [Example 8], the IC50 came to 4610 nM.
Regarding `Cc1ccc(-c2ncccn2)c(C(=O)N2C3CCC(COc4ccc(F)cn4)C2CC3)c1` (single isomer, unassigned) [Example 7], the IC50 amounted to 291 nM.
For `Cc1ccc(-c2ncccn2)c(C(=O)N2C3CC[C@H]2CC[C@@H]3COc2ccc(F)cc2)c1` [Example 29], the IC50 is 121 nM.
The same measure, in the same setting: the figure for `Cc1ccc(-c2ncccn2)c(C(=O)N2C[C@H](COc3ccc(F)cn3)CC[C@H]2C)c1` [MK6096, reference compound] is 29 nM; for `O=C(c1cc(Cl)ccc1-n1ccnn1)N1C2CC[C@H]1CC[C@@H]2COc1ccc(F)cn1` [Example 19] it is 372 nM.
Take `Cc1ccc(-n2nccn2)c(C(=O)N2C3CCC(COc4ccc(F)cn4)C2CC3)c1` (single isomer, unassigned) [Example 3]: the IC50 is 1420 nM.
On the same count and under the same terms, the same measure for `Cc1ccc(-c2ncccn2)c(C(=O)N2C3CC[C@H](COc4ccc(F)cn4)[C@@H]2CC3)c1` [Example 6]: 4190 nM; for `O=C(c1cc(F)ccc1-c1ncccn1)N1C2CC[C@H]1CC[C@@H]2COc1ccc(F)cn1` [Example 17]: 47 nM; for `Cc1ccc(-c2ccccn2)c(C(=O)N2C3CC[C@H]2CC[C@@H]3COc2ccc(F)cn2)c1` [Example 11]: 363 nM.
As for `Cc1ccc(C)c(C(=O)N2C3CC[C@H]2CC[C@@H]3OCc2ccc(F)cn2)c1` [Example 36], the IC50 worked out at 195 nM.

The experiment is the same for the next values; noted with them: IC50 detected in FLIPR, hOX2R, HEK293-OX2 stable cell strain, Fluo-4 AM calcium signal, Orexin A at EC70.
In the case of `Cc1ccc(-c2cccnc2)c(C(=O)N2C3CCC2[C@@H](COc2ccc(F)cn2)CC3)c1` (stereo partly drawn) [Example 33], the 50% inhibitory concentration (IC50) was determined as 24 nM.
In the case of `O=C(c1cc(Cl)ccc1-c1ncccn1)N1C2CC[C@H]1CC[C@@H]2COc1ccc(F)cn1` [Example 18], the IC50 is 904 nM.
On the same count and under the same terms, the same measure for `Cc1ccc(OCC2CCC3CCC2N3C(=O)c2cc(C)ccc2-c2ncccn2)nc1` (stereo not drawn) [Example 24]: 87 nM.

For the next experiment, the target named is T2, hOX1R (Homo sapiens, UniProt O43613).
T2 construct: expressed in transfected cells
T2 sequence (O43613 1-425): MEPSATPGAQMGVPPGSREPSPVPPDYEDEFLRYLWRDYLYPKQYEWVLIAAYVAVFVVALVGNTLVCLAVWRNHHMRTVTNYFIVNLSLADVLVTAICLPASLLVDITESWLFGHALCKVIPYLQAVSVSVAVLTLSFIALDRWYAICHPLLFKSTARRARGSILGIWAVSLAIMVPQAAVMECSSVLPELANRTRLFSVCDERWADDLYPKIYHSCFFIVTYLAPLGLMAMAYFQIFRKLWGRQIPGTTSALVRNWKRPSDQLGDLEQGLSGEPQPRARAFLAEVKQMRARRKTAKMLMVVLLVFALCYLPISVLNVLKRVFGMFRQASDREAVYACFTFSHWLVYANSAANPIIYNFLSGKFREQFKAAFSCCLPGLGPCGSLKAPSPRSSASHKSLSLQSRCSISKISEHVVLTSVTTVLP
Briefly: In vitro test of OX1R: calcium signal change in cells detected with FLIPR. As to conditions: HEK293-OX1 stable cell strain, Fluo-4 AM calcium signal, Orexin A at EC70; read-out: IC50 detected in FLIPR, hOX1R. In kind it is cell-based. Here is the method: as §1, §2, §3, §4, §5, §6
As to `Cc1ccc(-c2ncccn2)c(C(=O)N2C3CC[C@H]2CC[C@@H]3COc2ccncc2)c1` [Example 32], the 50% inhibitory concentration (IC50) turned out to be 7 nM.
In the case of `Cc1ccc(-n2nccn2)c(C(=O)N2C3CCC(COc4ccc(F)cn4)C2CC3)c1` (single isomer, unassigned) [Example 4], the IC50 stood at 217 nM.
Same read-out and setting: the same measure for `Cc1ccc(-c2ncccn2)c(C(=O)N2C3CCC(COc4ccc(F)cn4)C2CC3)c1` (single isomer, unassigned) [Example 8]: 4260 nM; for `Cc1ccc(-c2ncccn2)c(C(=O)N2C3CCC(COc4ccc(F)cn4)C2CC3)c1` (single isomer, unassigned) [Example 7]: 1270 nM.
Take `Cc1ccc(-c2ncccn2)c(C(=O)N2C3CC[C@H]2CC[C@@H]3COc2ccc(F)cc2)c1` [Example 29]: the IC50 stood at 68 nM.
Same read-out and setting: the same measure for `Cc1ccc(-c2ncccn2)c(C(=O)N2C[C@H](COc3ccc(F)cn3)CC[C@H]2C)c1` [MK6096, reference compound]: 36 nM; for `O=C(c1cc(Cl)ccc1-n1ccnn1)N1C2CC[C@H]1CC[C@@H]2COc1ccc(F)cn1` [Example 19]: 41 nM.
On to `Cc1ccc(-n2nccn2)c(C(=O)N2C3CCC(COc4ccc(F)cn4)C2CC3)c1` (single isomer, unassigned) [Example 3], for which the IC50 was 2070 nM.
On to `Cc1ccc(-c2ncccn2)c(C(=O)N2C3CC[C@H](COc4ccc(F)cn4)[C@@H]2CC3)c1` [Example 6], for which the IC50 is 2550 nM.
The same measure, in the same setting: the same measure for `O=C(c1cc(F)ccc1-c1ncccn1)N1C2CC[C@H]1CC[C@@H]2COc1ccc(F)cn1` [Example 17]: 43 nM.
For the compound `Cc1ccc(-c2ccccn2)c(C(=O)N2C3CC[C@H]2CC[C@@H]3COc2ccc(F)cn2)c1` [Example 11], the IC50 turned out to be 321 nM.
The same measure, in the same setting: the figure for `Cc1ccc(C)c(C(=O)N2C3CC[C@H]2CC[C@@H]3OCc2ccc(F)cn2)c1` [Example 36] is 217 nM.

The same experiment, now with this note: IC50 detected in FLIPR, hOX1R, HEK293-OX1 stable cell strain, Fluo-4 AM calcium signal, Orexin A at EC70.
As for `Cc1ccc(-c2cccnc2)c(C(=O)N2C3CCC2[C@@H](COc2ccc(F)cn2)CC3)c1` (stereo partly drawn) [Example 33], the IC50 came out at 10 nM.
The same measure, in the same setting: the same measure for `O=C(c1cc(Cl)ccc1-c1ncccn1)N1C2CC[C@H]1CC[C@@H]2COc1ccc(F)cn1` [Example 18]: 127 nM; for `Cc1ccc(OCC2CCC3CCC2N3C(=O)c2cc(C)ccc2-c2ncccn2)nc1` (stereo not drawn) [Example 24]: 56 nM.
